Source: patent publication US6548540B2, “Method of treating cancer using dithiocarbamate derivatives” (Charlotte-Mecklenburg Hospital Authority, priority 1998, dated 2003)

What was measured:
[1] = tested on: M1619 melanoma cells; assay: MTT proliferation assay, M1619 melanoma; format: cell-based, human
Protocol: Human malignant cell lines were obtained from American Type Tissue Culture Collection (Rockville, Md.). Melanoma cells lines CRL 1585 and 1619 were cultured in RPMI 1640 (GIBCO-BRL, Life Technologies, Grand Island, N.Y.) with 10% FBS and passed with nonenzymatic Cell Dissociation Solution® (Sigma). The prostate adenocarcinoma cell line CRL 1435 (PC-3) was also cultured in RPMI 1640 with 10% FBS but passed with 0.05% trypsin and 0.53 mM EDTA. The squamous lung carcinoma NCI-H520 and the adenosquamous lung carcinoma NCI-H596 cell lines were grown in RPMI 1640 supplemented with 10% FBS, 10 mM HEPES and 1.0 mM sodium pyruvate and passed with trypsin/EDTA. The small cell lung carcinoma NCI-H82 was cultured as a suspension in RPMI 1640 with 10% FBS. All of the above were grown in a 37° C. humidified environment containing 5% CO2/air. The breast carcinoma cell line MDA-MB-453 was grown in a 37° C. humidified environment with free gas exchange with atmospheric air using Leibovitz's L-15 medium with 2 mM L-glutamine and 10% FBS and was passed with trypsin/EDTA.
The effect of disulfiram (0.15 to 5.0 μM), diethyldithiocarbamate (DDC, 1.0 μM) or PDTC (0.625 to 5.0 μM) on proliferation of malignant cell lines was studied in cultures stimulated with 10% FBS. Cell numbers were quantitated 24-72 hours later. In some experiments disulfiram or PDTC were added immediately after cells were plated. In other experiments, cells were plated and allowed to grow for 24-72 hours before fresh media with disulfiram or PDTC was added, and cell numbers were assayed 24-72 hours later.
(§1) Finally, a number of dithiocarbamate effects on cells have been attributed to increasing the intracellular levels of copper ions. To further probe the role of copper in mediating cytotoxicity from disulfiram, cells were cultured with or without addition of the impermeate Cu^2+ chelator bathocuprioinedisulfonic acid (BCPS, 100 μM) added to medium to sequester Cu^2+ in the extracellular compartment. Cells were also treated 12 hours with various concentration of disulfiram (0.625 to 5.0 μM) and intracellular copper levels were measured as outlined below.
Proliferation of cultured cells was quantitated using a previously reported calorimetric method based upon metabolic reduction of the soluble yellow tetrazolium dye 3-[4,5-dimethylthiazol]-2yl-2,5-diphenyl tetrazolium bromide (MTT) to its insoluble purple formazan by the action of mitochondrial succinyl dehydrogenase (See, e.g., S. J. Hirst, et al., “Quantifying proliferation of cultured human and rabbit airway smooth muscle in response to serum and platelet derived growth factor,” Am. J. Respir. Cell Mol. Biol. 7:574-581 (1992); R. Dashtaki, et al. R., supra; S. S. Brar, et al., “Requirement for reactive oxygen species in serum-induced and platelet-derived growth factor-induced growth of airway smooth muscle,” J. Biol. Chem. 274:20017-20026 (1999)). This assay empirically distinguishes between dead and living cells. For proliferation studies, cells were seeded into 24-well uncoated plastic plates (Costar) at 50,000 cells per well and cultured with respective media and mitogens.

[2] = tested on: M1619 melanoma cells; assay: Intracellular copper by plasma emission spectroscopy; format: cell-based, human; conditions: 6 hours, ng copper/ml of hydrolysate
Protocol: as §1
Cells were cultured in 12-well plastic tissue culture plates at an initial plating density of 50,000 cells/well, grown to confluence and treated with disulfiram or vehicle DMSO as outlined above. Media was removed and cells were washed twice with DPBS. Cells were then scraped into 1.0 ml of 3N HCl/10.0% trichloroacetic acid and hydrolyzed at 70° C. for 16 hours. The hydrolysate was centrifuged at 600 gm for 10 minutes to remove debris and copper was measured in the supernatant using inductively coupled plasma emission spectroscopy (Model P30, Perkin Elmer, Norwalk, Conn.) at wavelengths of […] and 224.700 nm. To minimize metal contamination, plasticware rather than glassware was used in these experiments, and double-distilled, deionized water was used for all aqueous media. Results are reported as ng copper/ml of hydrolysate.
M1619 melanoma cells were cultured at a density of 50,000 cells/well in 24 well plates in the presence of 10% FBS and grown to confluence. Disulfiram or DMSO vehicle (5 μl/ml) was added at the concentrations indicated, and cells were incubated an additional 6 hours. Supernatant was removed from cells and monolayers were washed twice with DPBS. Cells were scraped into 1.0 ml 3 N HCL/10% trichloroacetic acid and hydrolyzed at 70° C. for 16 hours. After centrifugation at 600 g×10 min, copper was measured using inductively coupled plasma emission spectroscopy at wavelengths of 324.754 and 224.700 nm. Replicates of four are reported. To minimize metal contamination, plastic ware rather than glass was used in experiments, and double-distilled, deionized water was used for all aqueous media. ^Ap<0.01 compared to DMSO control; ^Bp<0.001 compared to DMSO control.

**Q.** With CCN(CC)C(=S)SSC(=S)N(CC)CC [Disulfiram, tetraethylthiuram disulfide] as the molecule, how does the IC50 ([1]; Homo sapiens, M1619, grown 24 hours, additional 24 hours, no added CuSO4, read-out: 50% inhibitory (IC50) concentration) read?
**A.** Its IC50 is 0.625 µM.

**Q.** And the inhibition at 0.625 µM ([1]; Homo sapiens, disulfiram 0.625 μM, treatment after 24 hours of growth, read-out: Mean Percent Inhibition of Growth)?
**A.** Its inhibition at 0.625 µM is 59 ± 4%.

**Q.** And the inhibition at 1.25 µM ([1]; Homo sapiens, disulfiram 1.25 μM, treatment after 24 hours of growth, read-out: Mean Percent Inhibition of Growth)?
**A.** The inhibition at 1.25 µM was 35 ± 4%.

**Q.** And the inhibition at 2.5 µM ([1]; Homo sapiens, disulfiram 2.5 μM, treatment after 24 hours of growth, read-out: Mean Percent Inhibition of Growth)?
**A.** Its inhibition at 2.5 µM is 39 ± 3%.

**Q.** And the inhibition at 5 µM ([1]; Homo sapiens, disulfiram 5.0 μM, treatment after 24 hours of growth, read-out: Mean Percent Inhibition of Growth)?
**A.** Its inhibition at 5 µM is 37 ± 4%.

**Q.** What about the “100% inhibitory (IC100) concentration” value ([1]; M1619, with 0.2 μM CuSO4 added to medium, grown 24 hours, additional 24 hours) of the same molecule?
**A.** The value was 0.625 µM.

**Q.** And the “growth in vitro of M1619 melanoma” value ([1]; added at plating, 24 hours)?
**A.** The value was “potent inhibitor of growth”.

**Q.** What about the “A540 of MTT Formazan” value ([1]; disulfiram 0.6 μM + carmustine 1 μM, 24 hours) of the same molecule?
**A.** The value was 0.042 ± 0.003^C.

**Q.** And the “A540 of MTT Formazan” value ([1]; disulfiram 0.6 μM + carmustine 10 μM, 24 hours)?
**A.** The value was 0.025 ± 0.002^C.

**Q.** And the “A540 of MTT Formazan” value ([1]; disulfiram 0.6 μM + carmustine 100 μM, 24 hours)?
**A.** The value was 0.030 ± 0.023.

**Q.** And the “A540 of MTT Formazan” value ([1]; disulfiram 0.6 μM + carmustine 1,000 μM, 24 hours)?
**A.** Its value is 0.004 ± 0.000.

**Q.** What about the “A540 of MTT Formazan” value ([1]; disulfiram 2.5 μM + cisplatin 1 ng/ml, added after 48 hours, additional 24 hours) of the same molecule?
**A.** The value was 1.369 ± 0.033^B.

**Q.** And the “A540 of MTT Formazan” value ([1]; disulfiram 2.5 μM + cisplatin 10 ng/ml, added after 48 hours, additional 24 hours)?
**A.** Its value is 1.221 ± 0.028.

**Q.** What about the “A540 of MTT Formazan” value ([1]; disulfiram 2.5 μM + cisplatin 100 ng/ml, added after 48 hours, additional 24 hours) of the same molecule?
**A.** The value was 1.183 ± 0.038^A.

**Q.** What about the “A540 of MTT Formazan” value ([1]; disulfiram 2.5 μM + cisplatin 1,000 ng/ml, added after 48 hours, additional 24 hours) of the same molecule?
**A.** The value was 0.921 ± 0.027^A.

**Q.** What about the “Intracellular Copper” value ([2]; FBS + 0.625 μM DS) of the same molecule?
**A.** The value was 76 ± 11 ng/mL.

**Q.** And the “Intracellular Copper” value ([2]; FBS + 1.25 μM DS)?
**A.** The value was 102 ± 5^A ng/ml.

**Q.** What about the “Intracellular Copper” value ([2]; FBS + 2.5 μM DS) of the same molecule?
**A.** Its value is 160 ± 17^A ng/ml.

**Q.** And the “Intracellular Copper” value ([2]; FBS + 5.0 μM DS)?
**A.** Its value is 195 ± 3^B ng/ml.
